Key:
PARP1 = PARP1 (Homo sapiens (Human), UniProt P09874)
Description: (§5) Experimental Principle: The inhibitory effect of the test substance on the enzymatic activity of PARP1/7 is assessed by using an Enzyme-Linked Immunosorbent Assay (ELISA).
(§6) (1) Pre-coating: Add 100 μL of a PBS buffer (10 mM NaH2PO4, 10 mM Na2HPO4, 150 mM NaCl, pH 7.4) containing 20 g/mL of histone to each well of a 96-well plate, and incubate at 4° C. overnight.
(§7) (3) Add 5 μL of the test substance or solvent to each well.
(§8) (4) Add 20 μL of(PARP1 or PARP7 (50 ng/well), and incubate at 30° C. for 1 hour.
(§9) (5) Add 50 μL of streptavidin-HRP to the reaction mixture, and incubate at 30° C. for 30 minutes.
(§10) (6) Finally, add 100 μL of a citrate buffer containing H2O2 and luminol (0.1 M, pH 5.4), and measure the luminescent signal using a microplate reader (Molecular Devices SpectraMax M5).
(§11) (7) Calculate the inhibition rate of PARP1 or PARP7 enzyme activity as [(control group−treatment group)/control group]×10000. Fit the dose-response data with standard dilutions using Prism GraphPad software and calculate the concentration required to achieve 5000 inhibition of PARP1 or PARP7 enzyme activity (IC50).

PARP7 = PARP7 (Homo sapiens (Human), UniProt Q7Z3E1)
Description: as §5, §6, §7, §8, §9, §10, §11

NCI-H1373 cells = experiment: Inhibitory effect on the proliferation of NCI-H1373 cells (CellTiter-Glo); assay type: cell-based; settings: Homo sapiens, 144 h, 6 days treatment
Description: 1. Experimental Principle: NCI-H1373 cells are a type of lung adenocarcinoma cells that overexpress PARP7.
2. Experimental Materials: NCI-H1373 cells were obtained from Nanjing Cobioer Biosciences Co., Ltd. CellTiter-Glo® (cell viability chemiluminescent assay reagent) was purchased from Promega (Catalog No. G7571). RPMI-1640 medium was obtained from ATCC (Catalog No. 30-2001). RPMI-1640 medium, penicillin/streptomycin antibiotics were purchased from WISENT. Fetal bovine serum was obtained from Biosera. The Nivo multimode reader was procured from PerkinElmer.
3. Experimental Method: NCI-H1373 cells were seeded in a white 96-well plate with 80 μL of cell suspension per well, containing 3000 NCI-H1373 cells. The cell plate was incubated overnight in a carbon dioxide (CO2) incubator.
The test compounds were serially diluted 5-fold to the 9th concentration, ranging from 2 mmol/L to 5.12 nmol/L, for a duplicate assay. 78 μL of culture medium was added to the intermediate plate, and then, according to the corresponding positions, 2 μL of each gradient-diluted compound was transferred to the intermediate plate. After thorough mixing, 20 μL of the compound solution was transferred to the cell plate. The compound concentration range in the cell plate ranged from 10 μmol/L to 0.0256 nmol/L. The cell plate was incubated in a CO2 incubator for 6 days.
Another cell plate was prepared, and the signal values were read on the day of dosing to obtain the maximum value referred to as Max in the following equation for data analysis. 25 μL of cell viability chemiluminescent assay reagent was added to each well of this cell plate, and it was incubated at room temperature for 10 minutes to stabilize the luminescent signal. Readings were taken using a multimode reader.
After 6 days of treatment, 25 μL of cell viability chemiluminescent assay reagent was added to each well of the cell plate, and it was incubated at room temperature for 10 minutes to stabilize the luminescent signal. Readings were taken using a multimode reader.
The IC50 value was determined by four-parameter curve fitting (obtained by using the “log(inhibitor) vs. response—Variable slope” model in GraphPad Prism).

[1] = Metabolic stability in rat liver microsomes; assay type: in vitro ADME; settings: pH 7.4, 1.00 μM compound, 0.5 mg/mL protein, read-out: intrinsic clearance, Clint
Description: (§1) 1. Experiment purpose: This study aims to determine the metabolic stability of selected compounds from the embodiments of the invention in liver microsomes of humans, dogs, monkeys, rats, and mice using the LC-MS/MS method.
(§2) Test compounds: The test drug is self-made from the example compounds of the present invention; Positive control compound RBN2397 purchased from Shanghai BioChemPartner Biotechnology Co., Ltd.
(§3) Liver microsomes obtained from Xenotech.
(§4) The incubation was carried out at 37° C. in a CO2 incubator. The reactions were terminated by adding 150 μL of cold acetonitrile at different time points (0, 5, 15, 30, and 45 minutes). The 96-well plate was shaken at 600 rpm for 10 minutes, followed by centrifugation at 6000 rpm for 15 minutes. The supernatant (80 μL) was mixed with 140 μL of pure water, and the remaining amount of the compound was determined using LC-MS/MS. The intrinsic clearance (Clint) was calculated using the formula Clint=k/liver microsomes protein concentration, where “k” is the linear regression slope of log compound remaining percentage against incubation time.

[2] = Metabolic stability in dog liver microsomes; assay type: in vitro ADME; settings: pH 7.4, 1.00 μM compound, 0.5 mg/mL protein, read-out: intrinsic clearance, Clint
Description: as §1, §2, §3, §4

[3] = Pharmacokinetic properties in SD rats after single intravenous injection and oral administration; assay type: in vivo; settings: SD male rats
Description: 1. Test purpose: to determine the pharmacokinetic characteristics of some of the example compound of the present invention in SD rats after single intravenous injection(IV) and oral administration(PO) by LC-MS/MS method.
2. Test material: the test drug is self-made from the example compounds of the present invention; Positive control compound RBN2397 purchased from Shanghai BioChemPartner Biotechnology Co., Ltd. SD male rats were obtained from the Laboratory Animal Management Department of Shanghai Family Planning Research Institute. Animal production license number (SCXK (Shanghai) 2018-0006).
Preparation of 0.5% methyl cellulose: 5 g of methyl cellulose were weighed and dissolved in 1000 mL of purified water.
Preparation of oral formulation: A required amount of test compound was weighed and dissolved in 0.5% methyl cellulose solution to obtain a suspension or solution of 0.5 mg/mL or 1.0 mg/mL.
Preparation of intravenous injection formulation: A required amount of test compound was weighed, and dissolved in 0.5 mL of dimethyl sulfoxide to prepare a solution of 4 mg/mL. 0.25 mL of the above solution was added into 0.5 mL of polyethylene glycol 15 hydroxystearate (solutol) and 4.25 mL of physiological saline to obtain a solution of 0.2 mg/mL.
Administration: SD male rats were orally administered (PO) after fasting overnight, and fed 4 hours after administration.
Sample Collection: blood was collected through jugular vein or other suitable vein, and 0.2 mL of blood was collected at each time point. Samples were placed into tubes containing ethylenediamine tetraacetic acid dipotassium salt and kept on ice before centrifugation. Within 1 hour after blood collection, the blood samples were centrifuged at 2-8° C. and 6800 g for 6 minutes and stored at −80° C. The time point for blood collection was 0.083, 0.25, 0.5, 1, 2, 4, 8 and 24 hours after intravenous administration, and 0.25, 0.5, 1, 2, 4, 6, 8 and 24 hours after oral administration.
The intravenous dosage was 1 mg/kg, and the pharmacokinetic parameters for oral administration were standardized to a 1 mg/kg dose.

[4] = Metabolic stability in human liver microsomes; assay type: in vitro ADME; settings: pH 7.4, 1.00 μM compound, 0.5 mg/mL protein, read-out: intrinsic clearance, Clint
Description: as §1, §2, §3, §4

[5] = rat, plasma, Intravenous injection, 1 mg/kg
[6] = rat, plasma, Oral gavage, standardized to a 1 mg/kg dose

Chain of PARP1 (P09874 whole entry): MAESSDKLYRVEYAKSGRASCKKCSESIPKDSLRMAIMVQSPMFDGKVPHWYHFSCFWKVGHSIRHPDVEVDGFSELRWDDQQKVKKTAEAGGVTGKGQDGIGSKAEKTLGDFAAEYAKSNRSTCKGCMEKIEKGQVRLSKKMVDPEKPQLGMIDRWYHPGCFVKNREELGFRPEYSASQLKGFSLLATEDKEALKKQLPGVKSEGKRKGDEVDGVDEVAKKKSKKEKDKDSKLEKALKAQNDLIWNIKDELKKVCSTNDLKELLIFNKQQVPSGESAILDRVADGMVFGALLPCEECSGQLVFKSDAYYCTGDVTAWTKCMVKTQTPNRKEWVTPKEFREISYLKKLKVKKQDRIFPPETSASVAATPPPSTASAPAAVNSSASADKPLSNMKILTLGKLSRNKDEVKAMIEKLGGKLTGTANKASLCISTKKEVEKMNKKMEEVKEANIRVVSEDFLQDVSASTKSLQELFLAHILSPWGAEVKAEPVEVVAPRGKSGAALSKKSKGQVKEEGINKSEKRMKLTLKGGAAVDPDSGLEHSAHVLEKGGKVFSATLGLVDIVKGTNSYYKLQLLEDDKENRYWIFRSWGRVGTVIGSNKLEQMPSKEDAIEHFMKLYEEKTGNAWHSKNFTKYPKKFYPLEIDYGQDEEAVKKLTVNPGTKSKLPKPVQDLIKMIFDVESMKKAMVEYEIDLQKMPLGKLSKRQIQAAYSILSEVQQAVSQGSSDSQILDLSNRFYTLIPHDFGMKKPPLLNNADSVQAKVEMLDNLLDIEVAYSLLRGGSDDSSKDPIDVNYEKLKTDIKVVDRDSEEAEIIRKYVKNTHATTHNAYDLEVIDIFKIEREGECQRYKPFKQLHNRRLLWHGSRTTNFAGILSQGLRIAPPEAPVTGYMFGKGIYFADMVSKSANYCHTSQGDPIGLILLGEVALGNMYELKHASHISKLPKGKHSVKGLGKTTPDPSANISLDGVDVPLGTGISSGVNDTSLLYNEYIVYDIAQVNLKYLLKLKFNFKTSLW
Chain of PARP7 (Q7Z3E1 whole entry): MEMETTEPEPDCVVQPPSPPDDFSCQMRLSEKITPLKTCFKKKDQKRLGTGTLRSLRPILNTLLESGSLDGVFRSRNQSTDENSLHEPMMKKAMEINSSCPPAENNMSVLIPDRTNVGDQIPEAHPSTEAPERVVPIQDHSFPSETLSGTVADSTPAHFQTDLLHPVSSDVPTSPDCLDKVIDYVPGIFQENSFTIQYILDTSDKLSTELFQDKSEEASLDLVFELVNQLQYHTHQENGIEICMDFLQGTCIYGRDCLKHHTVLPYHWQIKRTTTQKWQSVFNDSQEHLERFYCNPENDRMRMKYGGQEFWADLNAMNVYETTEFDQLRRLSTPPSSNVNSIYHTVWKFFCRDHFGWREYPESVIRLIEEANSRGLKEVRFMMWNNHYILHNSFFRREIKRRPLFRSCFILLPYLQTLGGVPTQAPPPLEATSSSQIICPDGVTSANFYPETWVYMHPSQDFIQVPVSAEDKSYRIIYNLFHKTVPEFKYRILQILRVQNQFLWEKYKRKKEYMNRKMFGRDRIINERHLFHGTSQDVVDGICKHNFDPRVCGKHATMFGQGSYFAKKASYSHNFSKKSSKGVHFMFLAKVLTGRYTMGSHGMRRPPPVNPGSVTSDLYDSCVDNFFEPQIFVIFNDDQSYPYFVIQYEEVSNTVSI

| SMILES | IC50 (PARP1) | IC50 (PARP7) | also measured |
| --- | --- | --- | --- |
| O=C(CC[C@@H]1C[C@H](N2CCCC2)CN1c1cc(C(F)(F)F)c(=O)[nH]n1)N1CCN(c2ncc(C(F)(F)F)cn2)CC1 [Compound 38] | 0.036 µM | 0.005 µM | – |
| O=C(CC[C@@H]1CCCCN1c1cc(C(F)(F)F)c(=O)[nH]n1)N1CCN(c2ncc(C(F)(F)F)cn2)CC1 [Compound 22] | 0.0316 µM | 0.0046 µM | – |
| O=C(CC[C@@H]1C[C@H](F)CN1c1cc(C(F)(F)F)c(=O)[nH]n1)N1CCN(c2ncc(C(F)(F)F)cn2)CC1 [Compound 43] | 0.004 µM | 0.004 µM | – |
| O=C([C@@H]1C[C@H](Oc2ccccc2)CN1c1cc(C(F)(F)F)c(=O)[nH]n1)N1CCN(c2ncc(C(F)(F)F)cn2)CC1 [Compound 66] | 0.427 µM | 0.004 µM | – |
| O=C(CC[C@@H]1C[C@@H](O)CN1c1cc(C(F)(F)F)c(=O)[nH]n1)N1CCN(c2ncc(C(F)(F)F)cn2)CC1 [Compound 31] | 0.0259 µM | 0.0044 µM | – |
| O=C(CC[C@@H]1C[C@@H](c2ccccc2)CN1c1cc(C(F)(F)F)c(=O)[nH]n1)N1CCN(c2ncc(C(F)(F)F)cn2)CC1 [Compound 52] | – | – | IC50 (NCI-H1373 cells): 0.0959 µM |
| CO[C@@H]1C[C@@H](CCC(=O)N2CCN(c3ncc(C(F)(F)F)cn3)CC2)N(c2cc(C(F)(F)F)c(=O)[nH]n2)C1 [Compound 44] | 0.018 µM | 0.007 µM | – |
| CO[C@H]1C[C@@H](CCC(=O)N2CCN(c3ncc(C(F)(F)F)cn3)CC2)N(c2cc(C(F)(F)F)c(=O)[nH]n2)C1 [Compound 34] | 0.0136 µM | 0.0033 µM | – |
| C[C@@H]1C[C@@H](CCC(=O)N2CCN(c3ncc(C(F)(F)F)cn3)CC2)N(c2cc(C(F)(F)F)c(=O)[nH]n2)C1 [Compound 29] | 0.0183 µM | 0.0256 µM | – |
| C[C@@H](COCCC(=O)N1CCN(c2ncc(C(F)(F)F)cn2)CC1)Nc1cn[nH]c(=O)c1C(F)(F)F [RBN-2397, reference compound] | – | – | CLint scaled at 1 μM [1]: 144 mL/min/kg; CLint scaled at 1 μM [2]: 40.8 mL/min/kg; F ([3]; Oral gavage, oral bioavailability): 3.76%; AUC(0-inf) [3, 5]: 288 ng·h/mL; Cmax [3, 5]: 634 ng/mL; clearance [3, 5]: 58.1 mL/min/kg; half-life [3, 5]: 20.4 min; AUC(0-inf) [3, 6]: 11.5 ng·h/mL; Cmax [3, 6]: 5.55 ng/mL; CLint scaled at 1 μM [4]: 88 mL/min/kg |
| O=C(CC[C@@H]1C[C@@H](Oc2cncnc2)CN1c1cc(C(F)(F)F)c(=O)[nH]n1)N1CCN(c2ncc(C(F)(F)F)cn2)CC1 [Compound 63] | – | – | IC50 (NCI-H1373 cells): 0.0124 µM |
| CCO[C@@H]1C[C@@H](C(=O)N2CCN(c3ncc(C(F)(F)F)cn3)CC2)N(c2cc(C(F)(F)F)c(=O)[nH]n2)C1 [Compound 71] | – | – | IC50 (NCI-H1373 cells): 0.0446 µM |
| O=C(CC[C@@H]1CC(F)(F)CN1c1cc(C(F)(F)F)c(=O)[nH]n1)N1CCN(c2ncc(C(F)(F)F)cn2)CC1 [Compound 23] | 0.0097 µM | 0.0032 µM | – |
